In PubChem BioAssay AID602464 (Sanford-Burnham Center for Chemical Genomics, 2012):
Active and inactive are the calls of the source. Rule as the data show it: active = IC50 below about 20 µM; inactive = the rest.

Test system: Gli-responsive luciferase reporter cells, SUFU pathway antagonism
Test: blockers of Gli reporter signaling – cell-based, luciferase luminescence, uHTS hits, dose response (AID 602464)

Row | Compound | IC50
1 | COC(=O)C1=C(c2cc3ccccc3o2)C[C@@H]2CC[C@H]1N2C(=O)N1CCC(C)CC1 | 16.3 µM
2 | COc1ccc(C(=O)C[n+]2cc(-c3ccc(OC)cc3)n3c2CCCC3)cc1 | 6.41 µM
3 | CCOc1ccc(S(=O)(=O)NCc2ccncc2)cc1NC(=O)c1ccccc1 | 0.94 µM
4 | c1ccc(C[n+]2cccc(-c3ccccc3)c2)cc1 | 10.8 µM
5 | CC[N+](CC)(CC#Cc1ccccc1)CC#Cc1ccccc1 | 4.37 µM
6 | CC(C)(C)c1ccc(C(=O)NC(=S)Nc2ccc(N3CCOCC3)cc2)cc1 | 9.13 µM
7 | Cc1cc(Nc2ccc([N+](=O)[O-])cc2)c2ccccc2n1 | > 20 µM (inactive)
8 | O=C(N/N=C/c1cc2ccccc2nc1Cl)[C@H]1C[C@@H]1c1ccccc1 | 16.4 µM
9 | CCCCCCCOc1ccc(OC(=O)c2cccnc2)cc1 | 1.06 µM
10 | Cc1nc2ccccc2c2oc(C(=O)N3CCN(C4CCCCC4)CC3)cc12 | 18.7 µM
11 | CC1C(OC(=O)CCC(=O)NC(C)(C)CO)O[C@H]2OC3(C)CC[C@H]4[C@H](C)CCC1C24OO3 (some centres not stated) | 0.368 µM
12 | Cc1cc(Br)c(S(=O)(=O)NCc2ccncc2)cc1C | 8.04 µM
13 | O=C(/C=C/c1ccco1)Nc1ccc(-c2nc3ccccc3[nH]2)cc1 | 1.99 µM
14 | CCCn1c2c(c(=N)c3c1CCC3)CCCC2 | 11 µM
15 | CCC(C(=O)NCCC(C)C)n1ccc2cc(S(=O)(=O)N3CCCCC3)ccc21 (configuration not stated) | 8.88 µM
16 | C=CCNc1nc2c(c(=O)n(C)c(=O)n2C)n1Cc1ccc(F)cc1 | 6.15 µM
17 | O=C(N[C@@H]1C/C=C\C[C@H](CC(=O)N(CCO)Cc2ccccc2)C(=O)NC[C@@H](c2ccccc2)OC1=O)OCC1c2ccccc2-c2ccccc21 | 6.27 µM
18 | CCN(CC(=O)Nc1c(F)cccc1F)C(=O)c1cc(S(=O)(=O)N(CC)CC)ccc1N1CCCCC1 | 12.2 µM
19 | CN(Cc1ccc(OC(F)F)cc1)C(=O)c1cccc(S(=O)(=O)N2CCN(Cc3ccccc3)CC2)c1 | 6.92 µM
20 | CCCCCCn1c(=O)c(C(=O)Nc2cnccn2)c(O)c2ccccc21 | 9.19 µM
21 | Cc1ccc(C2=C(CC(=O)O)C(=O)CC2)cc1 | > 20 µM (inactive)
22 | Cc1nc2ncccn2c1-c1csc(Nc2ccc(O)cc2)n1 | 4.37 µM
23 | CN(Cc1nccs1)C(=O)c1cc(COc2cccc3cnccc23)on1 | 12 µM
24 | CCOC(=O)c1ccc(NC(=O)Cn2cnc3cc(C)c(C)cc32)cc1 | 2.75 µM

Row | Compound | IC50
25 | COc1ccc(NS(=O)(=O)c2ccc(N3CCCCC3)c(N)c2)cc1 | 5.14 µM
26 | CC(C)C(=O)NC(=S)/C=C1/N(C)c2ccccc2C1(C)C | 4.76 µM
27 | COc1cc(C(=O)NC2CCN(C)CC2)ccc1Nc1ncc2c(n1)N(C1CCCCC1)CCC(=O)N2C | 1.6 µM
28 | O=C(Cc1ccc(Cl)cc1Cl)Nc1ccncc1 | 10.3 µM
29 | CCOc1ccc2[nH]c3c(N4CCN(C(=O)c5ccco5)CC4)ncnc3c2c1 | 7.07 µM
30 | FC(F)(F)c1ccc(N2CCN(c3cc(-c4ccccc4)nc4ncnn34)CC2)nc1 | 3.6 µM
31 | O=C(N[C@@H]1C/C=C\C[C@@H](CC(=O)N(CCO)Cc2ccccc2)C(=O)NCCOC1=O)OCC1c2ccccc2-c2ccccc21 | 12.7 µM
32 | CC(C)(C)c1ccc(CN2C3=NCCCN3c3ccccc32)cc1 | 3.83 µM
33 | COc1ccc(-n2c(-c3ccc(Cl)cc3)c[n+]3c2CCc2ccccc2-3)cc1 | 1.78 µM
34 | C[N+]1=C(/C=C/Nc2ccccc2)C(C)(C)c2ccccc21 | 5.37 µM
35 | O=C(N[C@@H]1C/C=C\C[C@@H](CC(=O)N(CCO)Cc2ccccc2)C(=O)NC[C@H](c2ccccc2)OC1=O)OCC1c2ccccc2-c2ccccc21 | 8.39 µM
36 | CC(Sc1nc2ccccc2c(=O)n1C)C(=O)N(C)C1CCCCC1 (configuration not stated) | 3.99 µM
37 | C=CCOC(=O)c1[nH]c2c(c1C)C(=O)CC(c1cc(OC)c(OC)c(OC)c1)C2 (configuration not stated) | 1.98 µM
38 | CCOC(=O)C1CCCN(S(=O)(=O)c2ccc(S(=O)(=O)N(CC)CC)cc2)C1 (configuration not stated) | 3.29 µM
39 | O=[N+]([O-])c1ccc(N2CCN(C(=S)NCc3ccc(Cl)cc3)CC2)cc1 | 11.9 µM
40 | Cc1sc2ncnc(N3CCN(S(=O)(=O)c4ccc(C(C)(C)C)cc4)CC3)c2c1C | 5.43 µM
41 | O=S(=O)(NCc1ccncc1)c1ccc(S(=O)(=O)NCC2CCCO2)cc1 (configuration not stated) | 11.5 µM
42 | C#CC[N+](C)(C)CCCCCCCCCCCC | 2.51 µM
43 | O=C(C[C@H]1C/C=C\C[C@H](NC(=O)OCC2c3ccccc3-c3ccccc32)C(=O)OC[C@@H]2CCCN2C1=O)N[C@H](CO)Cc1ccccc1 | > 20 µM (inactive)
44 | CCCCOC(=O)c1[nH]c2c(c1C)C(=O)CC(c1cc(OC)c(OC)c(OC)c1)C2 (configuration not stated) | 2.22 µM
45 | CCn1cc[n+](C)c1P(c1ccccc1)c1ccccc1 | 8.57 µM
46 | CCc1ccc(CN(C)C(=O)c2cc(COc3cccc4cnccc34)on2)cc1 | 5.85 µM
47 | CCn1c(=O)cc(SCC(=O)N2CCN(C3CCCCC3)CC2)c2ccccc21 | 11.9 µM
48 | COc1ccccc1N1CCN(c2ncc(C(=O)N3CCN(c4cccc(Cl)c4)CC3)c3ccccc23)CC1 | 6.18 µM

Row | Compound | IC50
49 | COc1ccc(CCNc2ncnc3c2oc2ccccc23)cc1OC | 2.72 µM
50 | COc1ccc(CC(=O)Nc2cccc(S(=O)(=O)N3CCCCCC3)c2)cc1OC | 7.98 µM
51 | CCn1c(=NC(=O)CS(=O)(=O)c2ccccc2)sc2cccc(OC)c21 | 3.95 µM
52 | CCOc1ccc(-c2nc(CSCC(=O)NC3CC3)c(C)o2)cc1 | 0.377 µM
53 | C(#Cc1ccccc1)C[N+]1(CC#Cc2ccccc2)CCCC1 | 5.3 µM
54 | CCCCCCCNC1=CC(=O)CC(c2ccccc2)C1 (configuration not stated) | 8.04 µM
55 | Cc1ccc(Cl)cc1N1CCN(C(=O)CSc2nnc3n2C(C)(C)Cc2ccccc2-3)CC1 | 7.5 µM
56 | C[C@@H]1COC(=O)[C@@H](NC(=O)OCC2c3ccccc3-c3ccccc32)C/C=C\C[C@@H](CC(=O)N(CCO)Cc2ccccc2)C(=O)N1 | > 20 µM (inactive)
57 | CCCCSc1nc2sc3c(c2c(=O)n1-c1ccc(C)cc1)CCN(C)C3 | 17.9 µM
58 | CCNc1nc(CN2CCCCC2)nc2scc(-c3ccccc3)c12 | 5.95 µM
59 | COc1ccc(CN2CCC(C(=O)Nc3ccc(Oc4cccnc4)cc3)CC2)c(C)c1C | 12.6 µM
60 | CCOP(=O)(CCP(=O)(OCC)OCC)OCC.C[CH2][Sn]([Cl])([Cl])[CH2]C | 6.24 µM
61 | CC[C@@H](O)C[C@H]1CCC[C@@]2(C[C@@H]3OC(=O)/C=C/[C@@](C)(O)[C@@H](O)[C@H](C)[C@@H](O)[C@H](OC4CCC(N(C)C)C(C)O4)[C@@H](O)[C@](C)(O)CCCCC/C=C/[C@@H]4CC(C)(C)O[C@@]4(O)C[C@H](O2)[C@H]3C)O1 (some centres not stated) | < 0.00977 µM
62 | COc1ccc(NC(=S)N2CCC(Cc3ccccc3)CC2)cc1 | 16.6 µM
63 | CC(=O)c1cccc(NS(=O)(=O)c2ccc(-c3cnc(C4CC4)o3)cc2)c1 | 8.16 µM
64 | CN1/C(=C\C=Nc2ccccc2)C(C)(C)c2ccccc21 | 6 µM
65 | CC(=O)c1c(C)[nH]c(C(=O)OCC(=O)Nc2cccc(S(=O)(=O)N3CCCC3)c2)c1C | 6.51 µM
66 | CC1CCC(NC(=O)c2cccc(S(=O)(=O)N3CCN(c4ccccc4)CC3)c2)CC1 (configuration not stated) | 9.93 µM
67 | CCc1cc(C(=O)NC2CCCN(Cc3ccccc3F)C2)n(C)n1 (configuration not stated) | 13.1 µM
68 | CCCc1nc(SCC(=O)Nc2nnc(CC)s2)c2c(=O)n(C)c(=O)n(C)c2n1 | 8.48 µM
69 | O=C(c1ccc(Cl)cc1)N1CCN(c2ccnc3cc(Cl)ccc23)CC1 | 3.01 µM
70 | Cc1ccc(-c2c[n+](Cc3ccc(Cl)c(Cl)c3)c3n2CCC3)cc1 | 2.79 µM
71 | NC(=O)CC(NC(=O)c1ccccc1)c1ccc(N2CCCCCC2)c([N+](=O)[O-])c1 (configuration not stated) | > 20 µM (inactive)
72 | FC(F)Oc1ccc(-c2c[n+]3c(n2-c2ccccc2)CCCCC3)cc1 | 7.36 µM
